Counter-ions that a name gives are not always drawn.
system: H3K9me2 in MDA-MB-231 cells; test: MDA-MB-231 H3K9me2 in-cell western assay; format: cell-based; details: Homo sapiens, read-out: EHMT2 ICW (IC50 μM)
Description: MDA-MB-231 cell line was purchased from ATCC (Manassas, Va., USA). RPMI/Glutamax medium, Penicillin-Streptomycin, Heat Inactivated Fetal Bovine Serum, and D-PBS were purchased from Life Technologies (Grand Island, N.Y., USA). Odyssey blocking buffer, 800CW goat anti-mouse IgG (H+L) antibody, and Licor Odyssey Infrared Scanner were purchased from Licor Biosciences, Lincoln, Nebr., USA. H3K9me2 mouse monoclonal antibody (Cat #1220) was purchased from Abcam (Cambridge, Mass., USA). 16% Paraformaldehyde was purchased from Electron Microscopy Sciences, Hatfield, Pa., USA). MDA-MB-231 cells were maintained in complete growth medium (RPMI supplemented with 10% v/v heat inactivated fetal bovine serum) and cultured at 37° C. under 5% CO2. UNC0638 was purchased from Sigma-Aldrich (St. Louis, Mo., USA).
General Procedure for MDA-MB-231 HEK9me2 In-Cell Western Assay.
Compound (100 nL) was added directly to 384-well cell plate. MDA-MB-231 cells (ATCC) were seeded in assay medium (RPMI/Glutamax supplemented with 10% v/v heat inactivated fetal bovine serum and 1% Penicillin/Streptomycin, Life Technologies) at a concentration of 3,000 cells per well to a Poly-D-Lysine coated 384-well cell culture plate with 50 μL per well. Plates were incubated at 37° C., 5% CO2 for 48 hours (BD Biosciences 356697). Plates were incubated at room temperature for 30 minutes and then incubated at 37° C., 5% CO2 for additional 48 hours. After the incubation, 50 μL per well of 8% paraformaldehyde (Electron Microscopy Sciences) in PBS was added to the plates and incubated at room temperature for 20 minutes. Plates were transferred to a Biotek 406 plate washer and washed 2 times with 100 μL per well of wash buffer (1×PBS containing 0.3% Triton X-100 (v/v)). Next, 60 μL per well of Odyssey blocking buffer (Licor Biosciences) was added to each plate and incubated for 1 hour at room temperature. Blocking buffer was removed and 20 μL of monoclonal primary antibody α-H3K9me2 (Abcam) diluted 1:800 in Odyssey buffer with 0.1% Tween 20 (v/v) were added and plates were incubated overnight (16 hours) at 4° C. Plates were washed 5 times with 100 μL per well of wash buffer. Next 20 μL per well of secondary antibody was added (1:500 800CW […] anti-mouse IgG (H+L) antibody (Licor Biosciences), 1:1000 DRAQ5 (Cell Signaling Technology) in Odyssey buffer with 0.1% Tween 20 (v/v)) and incubated for 1 hour at room temperature. The plates were washed 5 times with 100 μL per well wash buffer then 2 times with 100 μL per well of water. Plates were allowed to dry at room temperature then imaged on a Licor Odyssey Infrared Scanner (Licor Biosciences) which measured integrated intensity at 700 nm and 800 nm wavelengths. Both 700 and 800 channels were scanned.
% Inhibition Calculation.
First, the ratio for each well was determined by
Each plate included fourteen control wells of DMSO only treatment (Minimum Inhibition) as well as fourteen control wells (background wells) for maximum inhibition treated with control compound UNC0638 (Background wells).
The average of the ratio values for each well was calculated and used to determine the percent inhibition for each test well in the plate. Control compound was serially diluted three-fold in DMSO for a total of 10 test concentrations beginning at 1 μM. Percent inhibition was calculated as: […]
IC50 curves were generated using triplicate wells per concentration of compound. The IC50 is the concentration of compound at which measured methylation is inhibited by 50% as interpolated from the dose response curves. IC50 values were calculated using a non-linear regression (variable slope-four parameter fit model) with by the following formula
where Top is fixed at 100% and Bottom is fixed to 0%, [I]=concentration of inhibitor, IC50=half maximal inhibitory concentration and n=Hill Slope.

SMILES	IC50 [µM]
CNc1cc(C)nc(Nc2ccc(OC)c(-c3cn4c(n3)CN(C)CC4)c2)n1 [Compound 6]	> 10
CNc1cc(C)nc(Nc2ccc(OC)c(-c3cn4c(n3)CNCC4)c2)n1 [Compound 7]	1 to 10
CNc1cc(C)nc(Nc2ccc(OC)c(-c3nc4n(n3)CCNC4)c2)n1 [Compound 8, 2-N-(4-methoxy-3-[4H,5H,6H,7H-[1,2,4]triazolo[1,5-a]pyrazin-2-yl]phenyl)-4-N,6-dimethylpyrimidine-2,4-diamine hydrochloride]	> 10
CNc1cc(C)nc(Nc2ccc(OC)c(-c3nc4n(n3)CCN(C)C4)c2)n1 [Compound 9]	> 10
CNc1cc(C)nc(Nc2ccc(OC)c(-n3ncc4c3CCN(C)C4)c2)n1 [Compound 10]	0.1 to 1
CNc1cc(C)nc(Nc2ccc(OC)c(-c3nnc(C)[nH]3)c2)n1 [Compound 11]	> 10
CNc1cc(C)nc(Nc2ccc(OC)c(-c3cn[nH]c3)c2)n1 [Compound 12, 2-N-[4-methoxy-3-(1H-pyrazol-4-yl)phenyl]-4-N,6-dimethylpyrimidine-2,4-diamine]	> 10
CNc1cc(C)nc(Nc2ccc(OC)c(-n3cc4ccccc4n3)c2)n1 [Compound 146]	1 to 10
CNc1cc(C)nc(Nc2ccc(OC)c(-n3cc4cc(Br)ccc4n3)c2)n1 [Compound 148]	1 to 10
CNc1cc(C)nc(Nc2ccc(OC)c(-n3cc4cncc(C)c4n3)c2)n1 [Compound 151]	0.1 to 1
CNc1cc(C)nc(Nc2ccc(OC)c(-c3ccc4nc(C)[nH]c4c3)c2)n1 [Compound 155]	> 10
CNc1cc(C)nc(Nc2ccc(OC)c(-c3ccc4cc(C)[nH]c4c3)c2)n1 [Compound 156]	1 to 10
CNc1cc(C)nc(Nc2ccc(OC)c(-c3cc4ccncc4[nH]3)c2)n1 [Compound 157, N2-(4-methoxy-3-(1H-pyrrolo[2,3-c]pyridin-2-yl)phenyl)-N4,6-dimethylpyrimidine-2,4-diamine]	0.1 to 1
CNc1cc(C)nc(Nc2ccc(OC)c(-c3cc4cnccc4n3C)c2)n1 [Compound 158]	0.1 to 1
CNCc1cn(-c2cc(Nc3nc(C)cc(NC)n3)ccc2OC)nn1 [Compound 159, N2-(4-methoxy-3-(4-((methylamino)methyl)-1H-1,2,3-triazol-1-yl)phenyl)-N4,6-dimethylpyrimidine-2,4-diamine]	0.1 to 1
CNc1cc(C)nc(Nc2ccc(OC)c(-n3cc(CN(C)C)c(C)n3)c2)n1 [Compound 160]	0.1 to 1

SMILES	IC50 [µM]
CNc1nc2cc(-n3cc(CN(C)C)nn3)c(OC)cc2n1C [Compound 163]	1 to 10
CNc1cc(C)nc(Nc2ccc(OC)c(-n3cc(C(C)NC)nn3)c2)n1 (stereo not shown) [Compound 164]	0.1 to 1
CNc1cc(C)nc(Nc2ccc(OC)c(-n3cc(C(NC)C(F)(F)F)nn3)c2)n1 (stereo not shown) [Compound 165]	> 10
CNc1cc(C)nc(Nc2ccc(OC)c(-n3cc(C(C)(C)NC)nn3)c2)n1 [Compound 166]	> 10
CNc1ccnc(Nc2ccc(OC)c(-n3cnc(CN(C)C)c3)c2)n1 [Compound 170]	0.1 to 1
CNc1ccnc(Nc2ccc(OC)c(-n3cc(CN(C)C)nn3)c2)n1 [Compound 171]	0.1 to 1
CCNCc1cn(-c2cc(Nc3nccc(NC)n3)ccc2OC)nn1 [Compound 172]	1 to 10
CNc1ccnc(Nc2ccc(OC)c(-n3cc(CNCC4CC4)nn3)c2)n1 [Compound 173]	1 to 10
CNc1ccnc(Nc2ccc(OC)c(-c3cc4[nH]ncc4cn3)c2)n1 [Compound 174]	1 to 10
CNc1ccnc(Nc2ccc(OC)c(-c3cc4[nH]ccc4cn3)c2)n1 [Compound 175, N2-(4-methoxy-3-(1H-pyrrolo[3,2-c]pyridin-6-yl)phenyl)-N4-methylpyrimidine-2,4-diamine]	0.1 to 1
CNc1ccnc(Nc2ccc(OC)c(-n3cc(C4CC4)nn3)c2)n1 [Compound 176]	1 to 10
CNc1ccnc(Nc2ccc(OC)c(-n3cc(C4COC4)nn3)c2)n1 [Compound 177]	> 10
CNc1ccnc(Nc2ccc(OC)c(-c3ccc4cc[nH]c4c3)c2)n1 [Compound 178]	> 10
CNCc1cnn(-c2cc3nc(NC)n(C)c3cc2OC)c1 [Compound 179]	1 to 10
CNCc1cnn(-c2cc(Nc3nccc(NC)n3)ccc2OC)c1 [Compound 181, N2-(4-methoxy-3-(4-((methylamino)methyl)-1H-pyrazol-1-yl)phenyl)-N4-methylpyrimidine-2,4-diamine]	0.1 to 1

Second part, the compound after the results:

IC50 [µM]	SMILES
1 to 10	CNCc1cnn(-c2cc3nc(NC)cc(C4CCOCC4)c3cc2OC)c1 [Compound 184]
1 to 10	CCNCc1cnn(-c2cc(Nc3nccc(NC)n3)ccc2OC)c1 [Compound 185]
0.1 to 1	CNCc1cnn(-c2cc3c(cc2OC)C2(CCC2)C(N)=N3)c1 [Compound 186]
0.1 to 1	CNCc1cnn(-c2cc3c(cc2OC)C2(CCC2)C(NC)=N3)c1 [Compound 187]
1 to 10	CNc1cc(C)nc(Nc2cnc(OC)c(-n3cc(C4CCCN4)cn3)c2)n1 (stereo not shown) [Compound 188]
> 10	CNc1ccnc(Nc2ccc(OC)c(-n3cc(CNC4CCC4)nn3)c2)n1 [Compound 191]
0.1 to 1	CNC1=Nc2cc(-n3cc([C@H]4CCCN4)nn3)c(OC)cc2C12CCC2 [Compound 192]
0.1 to 1	COc1cc2c(cc1-n1cc([C@H]3CCCN3)nn1)N=C(N)C21CCC1 [Compound 193]
0.1 to 1	COc1cc2c(cc1-n1cc(C3CCCN3)nn1)N=C(N)C21CCC1 (stereo not shown) [Compound 194]
1 to 10	COc1cc2c(cc1-n1cc([C@@H]3CCCN3)nn1)N=C(N)C21CCC1 [Compound 195]
1 to 10	CNc1cc(C2CCOCC2)c2cc(OC)c(-n3cc(C4CCCN4)nn3)cc2n1 (stereo not shown) [Compound 196]
1 to 10	CNc1cc(C)nc(Nc2ccc(OC)c(-c3[nH]c4cnccc4c3F)c2)n1 [Compound 199]
< 0.1	CNc1cc(C)nc(Nc2ccc(OC)c(-c3[nH]c4cnccc4c3C)c2)n1 [Compound 200, N2-(4-methoxy-3-(3-methyl-1H-pyrrolo[2,3-c]pyridin-2-yl)phenyl)-N4,6-dimethylpyrimidine-2,4-diamine]
> 10	CNc1cc(C)nc(Nc2ccc(OC)c(-c3cc4ncncc4[nH]3)c2)n1 [Compound 201]
1 to 10	COc1cc2c(cc1-c1cc3ccncc3[nH]1)N=C(N)C21CCC1 [Compound 202]
> 10	CNc1cc(C)nc(Nc2cnc(OC)c(-c3cc4ccncc4[nH]3)c2)n1 [Compound 204]
> 10	COc1cc(NC2CCNCC2)ncc1-c1cc2ccncc2[nH]1 [Compound 205]
< 0.1	CNc1cc(C)nc(Nc2ccc(OC)c(-c3cc4[nH]ccc4cn3)c2)n1 [Compound 206, N2-(4-methoxy-3-(1H-pyrrolo[3,2-c]pyridin-6-yl)phenyl)-N4,6-dimethylpyrimidine-2,4-diamine]
0.1 to 1	CNc1cc(C)nc(Nc2ccc(OC)c(-c3cc4[nH]c(C)cc4cn3)c2)n1 [Compound 207]
> 10	COc1cc(NC2CCNCC2)ncc1-c1cc2[nH]ccc2cn1 [Compound 208]
> 10	CNc1nc2cc(-c3cc4[nH]ccc4cn3)c(OC)cc2n1C [Compound 209]
1 to 10	CNc1cc(C)nc(Nc2ccc(OC)c(-c3cc4[nH]cnc4cn3)c2)n1 [Compound 210]
0.1 to 1	CNc1cc(C)nc(Nc2ccc(OC)c(-n3cc([C@@H]4CCCN4)nn3)c2)n1 [Compound 212, (S)—N2-(4-methoxy-3-(4-(pyrrolidin-2-yl)-1H-1,2,3-triazol-1-yl)phenyl)-N4,6-dimethylpyrimidine-2,4-diamine]
0.1 to 1	CNc1cc(C)nc(Nc2ccc(OC)c(-n3cc([C@H]4CCCN4)nn3)c2)n1 [Compound 213]

From patent US20220235065A1 (Epizyme, Inc., priority 2016, published 2022)
